# Measured values published in ChEMBL document CHEMBL4834472 (J Med Chem, 2021).
# Activity calls are given as the source filed them. No cut-off for these calls is given here.
# Experiments:
# CDK2/Cyclin A1 = CDK2/Cyclin A1 (Homo sapiens, UniProt P24941); assay type: protein-complex assay
# Description: Inhibition of CDK2/Cyclin A1 (unknown origin) at 1 uM using histone H1 as substrate preincubated for 20 mins followed by 33P-ATP addition and measured after 2 hrs by filter binding method
# [1] = molecular target: Cyclin-dependent kinase 2/cyclin E1 (Homo sapiens, UniProt P24941); experiment: Inhibition of CDK2/cyclin E1 (unknown origin) in presence of [32P]gammaATP by image analyser; assay type: protein-complex assay
# CDK2/Cyclin A2 = CDK2/Cyclin A2 (Homo sapiens, UniProt P24941); experiment: Inhibition of CDK2/cyclin A2 (unknown origin) in presence of [32P]gammaATP by image analyser; assay type: protein-complex assay
# CDK9/cyclin T1 = CDK9/cyclin T1 (Homo sapiens, UniProt P50750); experiment: Inhibition of CDK9/cyclin T1 (unknown origin) in presence of [32P]gammaATP by image analyser; assay type: protein-complex assay
# [2] = molecular target: T1, Receptor-type tyrosine-protein kinase FLT3 (Homo sapiens, UniProt P36888); experiment: Inhibition of wild type FLT3 (unknown origin) using AGLT peptide substrate in presence of [32P]gammaATP by image analyser
# T1 sequence (P36888 whole entry): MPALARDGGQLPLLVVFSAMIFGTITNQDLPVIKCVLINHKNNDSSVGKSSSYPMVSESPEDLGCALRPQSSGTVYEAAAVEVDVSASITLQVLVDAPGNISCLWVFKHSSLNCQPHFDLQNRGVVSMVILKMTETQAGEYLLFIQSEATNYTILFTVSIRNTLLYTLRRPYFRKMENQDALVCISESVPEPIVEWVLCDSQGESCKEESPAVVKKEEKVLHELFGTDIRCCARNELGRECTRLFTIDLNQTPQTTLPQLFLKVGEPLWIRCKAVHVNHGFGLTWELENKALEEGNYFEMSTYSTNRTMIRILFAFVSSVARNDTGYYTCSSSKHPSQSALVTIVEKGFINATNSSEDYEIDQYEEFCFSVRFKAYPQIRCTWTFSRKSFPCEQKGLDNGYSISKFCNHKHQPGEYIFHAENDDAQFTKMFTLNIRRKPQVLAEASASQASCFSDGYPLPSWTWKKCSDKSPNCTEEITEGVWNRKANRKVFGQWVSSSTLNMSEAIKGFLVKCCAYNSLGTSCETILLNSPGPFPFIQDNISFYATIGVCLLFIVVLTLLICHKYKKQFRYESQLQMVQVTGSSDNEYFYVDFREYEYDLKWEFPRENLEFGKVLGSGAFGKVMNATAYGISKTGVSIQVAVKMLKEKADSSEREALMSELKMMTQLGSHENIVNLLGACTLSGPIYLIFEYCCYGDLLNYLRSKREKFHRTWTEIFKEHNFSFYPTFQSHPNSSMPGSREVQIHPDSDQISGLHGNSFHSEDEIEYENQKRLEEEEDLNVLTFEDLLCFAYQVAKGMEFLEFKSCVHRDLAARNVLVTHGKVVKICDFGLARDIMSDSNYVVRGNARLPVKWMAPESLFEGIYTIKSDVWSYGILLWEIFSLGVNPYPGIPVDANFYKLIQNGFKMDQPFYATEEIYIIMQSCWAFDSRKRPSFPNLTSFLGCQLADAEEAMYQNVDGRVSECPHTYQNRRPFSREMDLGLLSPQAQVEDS
# MOLM-13 = experiment: Antiproliferative activity against human MOLM-13 cells assessed as cell death measured after 72 hrs by resazurin dye based assay; assay type: functional; conditions: MOLM-13, 72 h
# MOLM-14 [3] = experiment: Antiproliferative activity against human MOLM-14 cells harboring D835Y mutant assessed as cell death measured after 72 hrs by resazurin dye based assay; assay type: functional; conditions: MOLM-14, 72 h
# MOLM-14 [4] = experiment: Antiproliferative activity against human MOLM-14 cells harboring F691L mutant assessed as cell death measured after 72 hrs by resazurin dye based assay; assay type: functional; conditions: MOLM-14, 72 h
# SEM cells = experiment: Antiproliferative activity against human SEM cells assessed as cell death measured after 72 hrs by resazurin dye based assay; assay type: functional
# BaF3 = experiment: Antiproliferative activity against mouse BaF3 cells assessed as cell death measured after 72 hrs by resazurin dye based assay; assay type: functional; conditions: BaF3, 72 h
# [5] = test system: Receptor-type tyrosine-protein kinase FLT3 (Homo sapiens), P36888 [UNDEFINED MUTATION]; experiment: Inhibition of FLT3 ITD (unknown origin) assessed as residual activity at 500 nM
# [6] = molecular target: Leucine-rich repeat serine/threonine-protein kinase 2 (Homo sapiens) (UniProt Q5S007); experiment: Inhibition of LRRK2 (unknown origin) assessed as residual activity at 500 nM
# [7] = molecular target: Maternal embryonic leucine zipper kinase (Homo sapiens) (UniProt Q14680); experiment: Inhibition of MELK (unknown origin) assessed as residual activity at 500 nM
# [8] = molecular target: Dual specificity protein kinase CLK1 (Homo sapiens) (UniProt P49759); experiment: Inhibition of CLK1 (unknown origin) assessed as residual activity at 500 nM
# [9] = molecular target: Receptor-type tyrosine-protein kinase FLT3 (Homo sapiens, UniProt P36888, ITD); experiment: Binding affinity to human partial length FLT3 ITD mutant expressed in bacterial expression system by KdELECT Discover assay
# [10] = molecular target: Receptor-type tyrosine-protein kinase FLT3 (Homo sapiens, UniProt P36888, D835V); experiment: Binding affinity to human partial length FLT3 ITD D835V mutant expressed in mammalian expression system by KdELECT Discover assay
# [11] = molecular target: Receptor-type tyrosine-protein kinase FLT3 (Homo sapiens, UniProt P36888, F691L); experiment: Binding affinity to human partial length FLT3 ITD F691L mutant expressed in mammalian expression system by KdELECT Discover assay
# [12] = molecular target: Receptor-type tyrosine-protein kinase FLT3 (Homo sapiens) (UniProt P36888); experiment: Inhibition of FLT3 in human MV4-11 cells assessed as STAT5 phosphorylation at Y694 at 20 to 100 nM incubated for 1 hrs by Western blot analysis; assay type: cell-based; conditions: dose 20-100 nM
# [13] = molecular target: Receptor-type tyrosine-protein kinase FLT3 (Homo sapiens) (UniProt P36888); experiment: Inhibition of FLT3 in human MV4-11 cells assessed as ERK1/2 phosphorylation at 20 to 100 nM incubated for 1 hrs by Western blot analysis; assay type: cell-based; conditions: dose 20-100 nM
# MV4-11 [14] = experiment: Induction of apoptosis in human MV4-11 cells assessed as caspase 3 activation using fluorescent substrate Ac-DEVD-AMC at 100 nM incubated for 24 hrs by Western blot analysis; assay type: functional, cell-based
# MV4-11 [15] = experiment: Induction of apoptosis in human MV4-11 cells assessed as caspase 7 activation using fluorescent substrate Ac-DEVD-AMC at 100 nM incubated for 24 hrs by Western blot analysis; assay type: functional, cell-based
# MV4-11 [16] = experiment: Induction of apoptosis in human MV4-11 cells assessed as increase in cleaved PARP1 level at 100 nM incubated for 24 hrs by Western blot analysis; assay type: functional, cell-based
# MV4-11 [17] = experiment: Induction of apoptosis in human MV4-11 cells assessed as decrease in MCL1 level at 100 nM incubated for 24 hrs by Western blot analysis; assay type: functional, cell-based
# MV4-11 [18] = experiment: Antitumor activity against human MV4-11 cells xenografted in NRG mouse assessed as tumor growth inhibition treated at 50 mg/kg, po via gavage daily for 5 days in a week after 15 days of implantation measured after 21 days by luciferase based relative to control; assay type: functional; conditions: MV4-11, po, 504 h, time 21 day
# MV4-11 [19] = experiment: cells; conditions: Homo sapiens, MV4-11, 72 h
# Description: Antiproliferative activity against human MV4-11 cells assessed as cell death measured after 72 hrs by resazurin dye based assay
# Maternal embryonic leucine zipper kinase (Homo sapiens), sequence (Q14680 whole entry, looked up): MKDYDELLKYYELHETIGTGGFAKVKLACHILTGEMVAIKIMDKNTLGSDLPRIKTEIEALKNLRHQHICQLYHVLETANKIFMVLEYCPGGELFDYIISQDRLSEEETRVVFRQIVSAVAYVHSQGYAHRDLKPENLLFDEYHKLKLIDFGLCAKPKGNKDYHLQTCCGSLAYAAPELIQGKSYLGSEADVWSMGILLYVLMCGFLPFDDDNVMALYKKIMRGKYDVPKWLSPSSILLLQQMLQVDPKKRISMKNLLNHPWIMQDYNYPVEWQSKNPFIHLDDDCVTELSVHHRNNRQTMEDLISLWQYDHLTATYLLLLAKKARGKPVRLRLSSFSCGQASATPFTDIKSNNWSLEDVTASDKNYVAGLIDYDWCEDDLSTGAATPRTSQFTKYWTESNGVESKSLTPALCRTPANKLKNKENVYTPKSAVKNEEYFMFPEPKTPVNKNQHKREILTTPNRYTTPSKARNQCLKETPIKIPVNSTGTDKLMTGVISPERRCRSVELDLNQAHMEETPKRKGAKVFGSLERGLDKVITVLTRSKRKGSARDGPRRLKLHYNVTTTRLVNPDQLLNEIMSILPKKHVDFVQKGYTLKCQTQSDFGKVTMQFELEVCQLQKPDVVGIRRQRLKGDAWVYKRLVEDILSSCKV
# CDK9/cyclin T1, sequence (O60563 whole entry): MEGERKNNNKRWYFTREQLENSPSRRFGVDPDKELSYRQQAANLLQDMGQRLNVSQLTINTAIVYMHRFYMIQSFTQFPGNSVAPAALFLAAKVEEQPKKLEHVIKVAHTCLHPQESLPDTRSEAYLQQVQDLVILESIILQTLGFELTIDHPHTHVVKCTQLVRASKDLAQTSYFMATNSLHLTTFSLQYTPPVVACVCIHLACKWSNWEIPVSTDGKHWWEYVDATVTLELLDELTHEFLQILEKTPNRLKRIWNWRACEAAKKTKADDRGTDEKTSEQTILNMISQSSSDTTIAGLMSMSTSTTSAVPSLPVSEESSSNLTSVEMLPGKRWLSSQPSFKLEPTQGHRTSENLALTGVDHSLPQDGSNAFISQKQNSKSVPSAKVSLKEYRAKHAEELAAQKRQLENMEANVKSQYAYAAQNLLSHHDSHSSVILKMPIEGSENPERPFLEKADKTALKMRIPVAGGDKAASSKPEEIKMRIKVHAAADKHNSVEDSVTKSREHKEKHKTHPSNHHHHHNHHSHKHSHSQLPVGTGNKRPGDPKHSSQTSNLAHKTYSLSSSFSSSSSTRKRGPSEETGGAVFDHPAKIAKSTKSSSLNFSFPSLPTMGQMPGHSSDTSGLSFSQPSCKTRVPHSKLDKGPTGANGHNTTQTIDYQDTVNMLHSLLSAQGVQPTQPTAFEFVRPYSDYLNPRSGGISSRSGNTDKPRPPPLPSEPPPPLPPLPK
# CDK9/cyclin T1, sequence (P50750 whole entry): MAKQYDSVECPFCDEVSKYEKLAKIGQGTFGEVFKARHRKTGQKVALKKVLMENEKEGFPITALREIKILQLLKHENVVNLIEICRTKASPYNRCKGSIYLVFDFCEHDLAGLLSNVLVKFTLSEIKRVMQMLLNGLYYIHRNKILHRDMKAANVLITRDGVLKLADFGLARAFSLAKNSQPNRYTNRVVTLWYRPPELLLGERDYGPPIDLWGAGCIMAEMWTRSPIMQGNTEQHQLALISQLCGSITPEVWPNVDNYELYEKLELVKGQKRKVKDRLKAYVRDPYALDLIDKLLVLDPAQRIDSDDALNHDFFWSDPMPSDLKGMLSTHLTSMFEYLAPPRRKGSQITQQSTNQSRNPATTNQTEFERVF
# Leucine-rich repeat serine/threonine-protein kinase 2 (Homo sapiens), sequence (Q5S007 whole entry): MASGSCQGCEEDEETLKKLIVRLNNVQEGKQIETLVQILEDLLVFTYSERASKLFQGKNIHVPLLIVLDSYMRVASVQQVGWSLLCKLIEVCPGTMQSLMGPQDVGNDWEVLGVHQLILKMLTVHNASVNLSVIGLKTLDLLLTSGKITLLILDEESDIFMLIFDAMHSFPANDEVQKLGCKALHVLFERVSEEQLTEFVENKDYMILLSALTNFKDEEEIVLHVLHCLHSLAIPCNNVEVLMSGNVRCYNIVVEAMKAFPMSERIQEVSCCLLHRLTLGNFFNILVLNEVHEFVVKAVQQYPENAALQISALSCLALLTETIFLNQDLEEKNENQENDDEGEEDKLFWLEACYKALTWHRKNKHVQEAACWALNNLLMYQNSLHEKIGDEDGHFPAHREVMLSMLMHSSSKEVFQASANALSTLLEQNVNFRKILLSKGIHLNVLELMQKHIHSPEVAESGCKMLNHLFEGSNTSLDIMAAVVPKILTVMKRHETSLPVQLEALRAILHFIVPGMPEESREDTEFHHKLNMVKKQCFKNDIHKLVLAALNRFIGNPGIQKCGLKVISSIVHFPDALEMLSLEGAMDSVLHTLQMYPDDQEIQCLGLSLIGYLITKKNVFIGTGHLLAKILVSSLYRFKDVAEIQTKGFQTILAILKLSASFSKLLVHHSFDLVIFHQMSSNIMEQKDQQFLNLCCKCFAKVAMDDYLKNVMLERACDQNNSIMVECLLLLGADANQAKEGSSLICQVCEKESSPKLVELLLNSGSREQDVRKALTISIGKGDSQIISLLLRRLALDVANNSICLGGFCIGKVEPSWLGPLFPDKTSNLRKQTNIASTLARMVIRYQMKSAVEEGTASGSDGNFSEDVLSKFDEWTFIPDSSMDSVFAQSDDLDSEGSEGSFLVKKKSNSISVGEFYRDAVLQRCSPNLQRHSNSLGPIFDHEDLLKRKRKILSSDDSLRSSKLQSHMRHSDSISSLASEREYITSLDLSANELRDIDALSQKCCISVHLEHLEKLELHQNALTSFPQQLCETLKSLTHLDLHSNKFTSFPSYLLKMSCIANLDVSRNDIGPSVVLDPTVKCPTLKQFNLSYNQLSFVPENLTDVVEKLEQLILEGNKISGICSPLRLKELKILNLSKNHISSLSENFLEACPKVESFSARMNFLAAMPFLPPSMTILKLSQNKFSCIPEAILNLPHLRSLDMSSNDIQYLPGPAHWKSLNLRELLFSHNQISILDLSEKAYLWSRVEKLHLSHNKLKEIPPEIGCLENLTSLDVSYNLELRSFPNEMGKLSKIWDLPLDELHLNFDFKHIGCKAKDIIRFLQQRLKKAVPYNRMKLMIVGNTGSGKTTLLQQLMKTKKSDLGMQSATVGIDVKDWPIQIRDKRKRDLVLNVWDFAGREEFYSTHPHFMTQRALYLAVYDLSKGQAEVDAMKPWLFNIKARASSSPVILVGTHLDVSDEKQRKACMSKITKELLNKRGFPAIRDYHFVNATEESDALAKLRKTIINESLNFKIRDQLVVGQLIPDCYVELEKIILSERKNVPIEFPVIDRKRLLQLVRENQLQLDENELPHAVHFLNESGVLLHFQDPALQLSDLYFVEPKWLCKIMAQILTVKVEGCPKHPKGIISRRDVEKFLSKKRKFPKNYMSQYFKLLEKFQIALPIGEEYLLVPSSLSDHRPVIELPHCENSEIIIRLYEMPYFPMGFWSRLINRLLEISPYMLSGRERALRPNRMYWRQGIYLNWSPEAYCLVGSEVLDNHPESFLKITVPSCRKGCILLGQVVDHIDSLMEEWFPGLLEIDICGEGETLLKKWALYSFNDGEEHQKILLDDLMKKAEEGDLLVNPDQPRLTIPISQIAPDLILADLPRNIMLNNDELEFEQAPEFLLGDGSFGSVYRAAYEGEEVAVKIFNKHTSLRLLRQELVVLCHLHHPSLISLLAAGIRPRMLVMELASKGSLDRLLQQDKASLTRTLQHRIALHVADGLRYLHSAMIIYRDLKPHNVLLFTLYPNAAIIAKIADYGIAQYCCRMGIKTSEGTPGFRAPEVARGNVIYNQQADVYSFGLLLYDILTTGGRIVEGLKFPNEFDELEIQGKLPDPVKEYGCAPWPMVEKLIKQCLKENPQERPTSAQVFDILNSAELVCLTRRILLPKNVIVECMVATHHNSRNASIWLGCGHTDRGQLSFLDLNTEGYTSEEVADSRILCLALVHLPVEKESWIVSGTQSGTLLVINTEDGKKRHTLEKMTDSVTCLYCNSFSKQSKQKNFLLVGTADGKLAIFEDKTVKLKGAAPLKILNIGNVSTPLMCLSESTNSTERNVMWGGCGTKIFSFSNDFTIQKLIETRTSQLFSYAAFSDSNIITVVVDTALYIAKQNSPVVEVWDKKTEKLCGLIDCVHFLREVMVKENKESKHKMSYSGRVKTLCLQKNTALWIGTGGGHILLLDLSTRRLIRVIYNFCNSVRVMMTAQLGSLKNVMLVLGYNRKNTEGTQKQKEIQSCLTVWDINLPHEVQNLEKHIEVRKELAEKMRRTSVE
# Dual specificity protein kinase CLK1 (Homo sapiens), sequence (P49759 whole entry, looked up): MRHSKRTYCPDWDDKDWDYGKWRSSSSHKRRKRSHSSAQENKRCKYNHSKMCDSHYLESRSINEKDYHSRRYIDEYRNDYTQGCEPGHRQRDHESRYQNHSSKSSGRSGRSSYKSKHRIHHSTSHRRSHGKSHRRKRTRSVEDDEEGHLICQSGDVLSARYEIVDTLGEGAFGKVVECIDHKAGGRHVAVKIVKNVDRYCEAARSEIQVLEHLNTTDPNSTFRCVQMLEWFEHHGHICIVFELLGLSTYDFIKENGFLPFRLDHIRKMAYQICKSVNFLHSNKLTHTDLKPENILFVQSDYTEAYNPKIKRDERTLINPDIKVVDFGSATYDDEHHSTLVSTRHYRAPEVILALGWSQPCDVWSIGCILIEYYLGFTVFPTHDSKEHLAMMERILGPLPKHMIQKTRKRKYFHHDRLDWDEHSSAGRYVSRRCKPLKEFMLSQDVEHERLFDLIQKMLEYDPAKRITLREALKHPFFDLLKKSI
smiles,measurement,setting,value
Cc1n[nH]c2ccc3nc(-c4c[nH]nc4C(F)(F)F)c4c(c3c12)CCCC4,IC50,CDK2/Cyclin A1,430 nM
same,IC50,[1],258 nM
same,IC50,CDK2/Cyclin A2,430 nM
same,IC50,CDK9/cyclin T1,> 1000 nM
same,IC50,[2],25 nM
same,IC50,MOLM-13,68 nM
same,IC50,MOLM-14 [3],36 nM
same,IC50,MOLM-14 [4],53 nM
same,IC50,SEM cells,422 nM
same,IC50,BaF3,153000 nM
same,Activity,[5],< 2.5%
same,Activity,[6],4%
same,Activity,[7],4%
same,Activity,[8],4%
same,Kd,[9],1.6 nM
same,Kd,[10],0.73 nM
same,Kd,[11],1.3 nM
same,inhibition,[12],Active
same,inhibition,[13],inactive
same,Activity,MV4-11 [14],Active
same,Activity,MV4-11 [15],Active
same,Activity,MV4-11 [16],Active
same,Activity,MV4-11 [17],Active
same,inhibition in vivo at 50 mg/kg,MV4-11 [18],90%
same,IC50,MV4-11 [19],70 nM
